Target: T1, glucagon receptor (Homo sapiens, UniProt P47871)
T1 construct: expressed in transfected cells; host or cells: Chinese Hamster Ovary cells (CHO-HGR), membranes
Experiment: glucagon receptor binding assay (125I-glucagon, CHO-HGR membranes)
Details: 20 μM; reported where 20 μM did not reduce glucagon binding by 50%
Protocol: The affinity for the glucagon receptor of compounds of the present invention is determined by the glucagon receptor binding assay. Membranes were prepared from Chinese Hamster Ovary cells expressing the glucagon receptor (CHO-HGR) by scraping the cells into hypotonic lysis buffer (10 mM Tris, pH 7.4, 2 mM EDTA, 5 mM MgCl2 and 1 mM PMSF) and subjecting the material to Polytron homogenization. Nuclei were removed by a 15-min 800×g centrifugation step conducted at 4° C. Membranes containing the receptor were collected by centrifugation at 15,000×gfor 15 min at 4° C. The membranes were washed once in lysis buffer and suspended in 0.25 M sucrose, 10 mM Tris, 5 mM EDTA, pH 7.4. The membranes were used in ligand binding studies as reported (Yoo-Warren, H., Willse, A. G., Hancock, N., Hull, J., McCaleb, M., and Livingston, J. Regulation of Rat Glucagon Receptor Expression. Biochem. Biophysical Res. Commun. 1994, 205, 347-353). In brief, 10 ug of membrane protein was incubated in 130 μl of binding buffer that consisted of 20 mM Tris, […], 1 mM EDTA, 1 mg/ml BSA, and 1 mg/ml bacitracin. The membrane suspension was placed in each well of a 96-well filtration plate (glass fiber type C, Millipore). […] Following the addition of test compound, 50 μl of ^125 I-glucagon (9 fmol) (NEN) was added to each well. Control wells contained membranes, 0.5% DMSO (solvent for test compounds), radiolabeled glucagon without and with excess native glucagon (1 μM) to establish nonspecific binding. The plates were incubated for 60 min at room temperature, and then filtered on a Mllipore vacuum apparatus. Following a wash step with ice-cold PBS/0.1% BSA, the filters were punched into test tubes, and the membrane bound radioactivity was determined.

T1 sequence (P47871 26-477): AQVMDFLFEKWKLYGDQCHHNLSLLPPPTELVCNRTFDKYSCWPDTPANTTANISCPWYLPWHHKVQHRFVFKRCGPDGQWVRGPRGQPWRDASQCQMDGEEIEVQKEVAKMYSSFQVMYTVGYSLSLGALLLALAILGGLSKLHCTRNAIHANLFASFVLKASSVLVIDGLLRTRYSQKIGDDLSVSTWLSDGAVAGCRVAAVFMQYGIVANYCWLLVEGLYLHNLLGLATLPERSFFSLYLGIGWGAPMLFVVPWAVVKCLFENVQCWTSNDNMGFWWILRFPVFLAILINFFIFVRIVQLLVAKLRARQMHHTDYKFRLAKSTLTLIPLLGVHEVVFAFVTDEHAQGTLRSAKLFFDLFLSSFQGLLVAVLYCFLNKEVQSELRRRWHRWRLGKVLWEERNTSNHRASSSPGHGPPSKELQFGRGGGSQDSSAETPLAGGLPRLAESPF

SMILES	inhibition at 20 µM
CC(C)=Cc1c(C)nc(C)c(CO)c1-c1ccccc1 [Example 2]	2.73%
CCCC=Cc1c(C)nc(C)c(CO)c1-c1ccccc1 [Example 3]	1.52%
CCCCCc1c(C)nc(C)c(CO)c1-c1ccccc1 [Example 4]	1.98%
CCc1nc(CC)c(CO)c(-c2ccccc2)c1C=C(C)C [Example 5]	12.4%
CCCC=Cc1c(CC)nc(CC)c(CO)c1-c1ccccc1 [Example 6]	34.2%
C=Cc1c(CC)nc(CC)c(CO)c1-c1ccccc1 [Example 8]	17%
CCc1nc(CC)c(CO)c(-c2ccccc2)c1CC [Example 9]	16.6%

Same assay, conditions: 125I-glucagon; 60 min at room temperature; read-out: IC50

SMILES	IC50
Cc1ccc(SCc2c(C(C)C)cc(C(C)C)c(C(C)O)c2-c2ccc(F)cc2)cc1 (single isomer, unassigned; (+)) [Example 249, (+)-3,5-Diisopropyl-2-[(p-tolylthio)methyl]-6-(1-hydroxyethyl)-4'-fluoro-1,1'-biphenyl]	130 nM
CCCCCc1c(C(C)C)nc(C(C)C)c(CO)c1-c1ccc(F)cc1 [Example 1]	600 nM
CC(C)=Cc1c(C(C)C)nc(C(C)C)c(CO)c1-c1ccccc1 [Example 11]	8000 nM
CC=Cc1c(C(C)C)nc(C(C)C)c(CO)c1-c1ccccc1 [Example 12]	1700 nM
CCC=Cc1c(C(C)C)nc(C(C)C)c(CO)c1-c1ccccc1 [Example 13]	3000 nM
CCCCCCc1c(C(C)C)nc(C(C)C)c(CO)c1-c1ccccc1 [Example 16, 2,6Diisopropyl-3-hydroxymethyl-4-phenyl-5-hexylpyridine]	850 nM
CCCc1c(C(C)C)nc(C(C)C)c(CO)c1-c1ccccc1 [Example 17]	600 nM
CCCCc1c(C(C)C)nc(C(C)C)c(CO)c1-c1ccccc1 [Example 18, 2,6-Diisopropyl-3-hydroxymethyl-4-phenyl-5-butylpyridine]	750 nM
CCCCC=Cc1c(C(C)C)nc(C(C)C)c(CO)c1-c1ccc(F)cc1 [Example 19, 2,6-Diisproyl-3-hyroxymethyl-4-(4-fluorophenyl)-5-(1-hexenyl)-pyridine]	700 nM
CCC=Cc1c(C(C)C)nc(C(C)C)c(CO)c1-c1ccc(F)cc1 [Example 20, 2,6-Diisopropyl-3-hydroxymethyl-4-(4-fluorophenyl)-5-(l-butenyl)-pyridine]	1300 nM
CC=Cc1c(C(C)C)nc(C(C)C)c(CO)c1-c1ccc(F)cc1 [Example 21, 2,6-Diisopropyl-3-hydroxymethyl-4-(4-fluorophenyl)-5-(1-propenyl)-pyridine]	800 nM
C=Cc1c(C(C)C)nc(C(C)C)c(CO)c1-c1ccc(F)cc1 [Example 22, 2,6Diisopropyl-3-hydroxymethyl-4-(4-fluorophenyl)-5-ethenylpyridine]	1100 nM
CCCCCCc1c(C(C)C)nc(C(C)C)c(CO)c1-c1ccc(F)cc1 [Example 23, 2,6-Diisopropyl-3-hydroxymethyl-4-(4-fluorophenyl)-5-hexylpyridine]	390 nM
CCCCc1c(C(C)C)nc(C(C)C)c(CO)c1-c1ccc(F)cc1 [Example 24, 2,6-Diisopropyl-3-hydroxymethal-4-(4fluorophenyl)-5-butylpyridine]	750 nM
CCCc1c(C(C)C)nc(C(C)C)c(CO)c1-c1ccc(F)cc1 [Example 25, 2,6-Diisopropyl-3-hydroxymethyl-4-(4-fluorophenyl)-5-propylpyridine]	400 nM
CCc1c(C(C)C)nc(C(C)C)c(CO)c1-c1ccc(F)cc1 [Example 26, 2,6Diisopropyl-3-hydroxymethyl-4-(4-fluorophenyl)-5-ethylpyridine]	1000 nM

SMILES	IC50
CC(C)C=Cc1c(C(C)C)nc(C(C)C)c(CO)c1-c1ccc(F)cc1 [Example 27, 2,6-Diisopropyl-3-hydroxymethyl-4-(4-fluorophenyl)-5-(3-methyl-1-butenyl)pyridine]	20000 nM
CC(C)CC=Cc1c(C(C)C)nc(C(C)C)c(CO)c1-c1ccc(F)cc1 [Example 28, 2,6Diisopropyl-3-hydroxymethyl-4-(4-fluorophenyl)-5-(4-methyl-1-pentenyl)pyridine]	1000 nM
CC(C)CCc1c(C(C)C)nc(C(C)C)c(CO)c1-c1ccc(F)cc1 [Example 29, 2,6-Diisopropyl-3-hydroxymethyl-4-(4-fluorophenyl)-5-(3-methylbutyl)pyridine]	1000 nM
CC(C)CCCc1c(C(C)C)nc(C(C)C)c(CO)c1-c1ccc(F)cc1 [Example 30, 2,6-Diisopropyl-3-hydroxymethyl-4-(4-fluorophenyl)-5-(4-methylpentyl)pyridine]	900 nM
CC(C)c1nc(C(C)C)c(CO)c(-c2ccc(F)cc2)c1C=C1CCCC1 [Example 31, 2,6-Diisopropyl-3-hydroxymethyl-4-(4-flurorphenyl)-5-(cyclopentyl-idenemethylene)pyridine]	2600 nM
CCCCCC=Cc1c(C(C)C)nc(C(C)C)c(CO)c1-c1ccc(F)cc1 [Example 32, 2,6-Diisopropyl-3-hydroxymethyl-4-(4-fluorophenyl)-5-(1-heptenyl)-pyridine]	1100 nM
CCCCCCC=Cc1c(C(C)C)nc(C(C)C)c(CO)c1-c1ccc(F)cc1 [Example 33, 2,6-Diisopropyl-3-hydroxymethyl-4-(4-fluorophenyl)-5-(1-octenyl)-pyridine]	1800 nM
CC(C)c1nc(C(C)C)c(CO)c(-c2ccc(F)cc2)c1/C=C/c1ccccc1 [Example 34, 2,6-Diisopropyl-3hydroxymethyl-4-(4-fluorophenyl)-5-[2(E)-phenyl-ethenyl]pyridine]	600 nM
CCCCCCCc1c(C(C)C)nc(C(C)C)c(CO)c1-c1ccc(F)cc1 [Example 35, 2,6-Diisopropyl-3-hydroxymethyl-4-(4-fluorophenyl)-5-heptylpyridine]	700 nM
CCCCCCCCc1c(C(C)C)nc(C(C)C)c(CO)c1-c1ccc(F)cc1 [Example 36, 2,6-Diisopropyl-3-hydroxymethyl-4-(4-fluorophenyl)-5-octylpyridine]	1800 nM
CC(C)c1nc(C(C)C)c(CCc2ccccc2)c(-c2ccc(F)cc2)c1CO [Example 37, 2,6-Diisopropyl-3-hydroxymethyl-4-(4-fluorophenyl)-5-(2-phenylethyl)pyridine]	750 nM
CC(C)c1nc(C(C)C)c(CO)c(-c2ccc(F)cc2)c1C=CCCc1ccccc1 [Example 38, 2,6-Diisopropyl-3-hydroxymethyl-4-(4-fluorophenyl)-5-(4phenyl-1-butenyl)pyridine]	600 nM
CC(C)c1nc(C(C)C)c(CCCCc2ccccc2)c(-c2ccc(F)cc2)c1CO [Example 39]	1300 nM
Cc1ccccc1/C=C/c1c(C(C)C)nc(C(C)C)c(CO)c1-c1ccc(F)cc1 [Example 40, 2,6-Diisopropyl-3-hydroxymethyl-4-(4-fluorophenyl)-5-[2(E)-(2-methyl-phenyl)ethenyl]pyridine]	750 nM
Cc1cccc(/C=C/c2c(C(C)C)nc(C(C)C)c(CO)c2-c2ccc(F)cc2)c1 [Example 41, 2,6-Diisopropyl-3-hydroxvmethyl-4-(4fluorophenyl)-5-[2(E)-(3-methyl-phenyl)ethenyl]pyridine]	600 nM
Cc1ccc(/C=C/c2c(C(C)C)nc(C(C)C)c(CO)c2-c2ccc(F)cc2)cc1 [Example 42, 2,6-Diisopropyl-3-hydroxymethyl-4-(4-fluorophenyl)-5-[2(E)-(4-methyl-phenyl)ethenyl]pyridine]	700 nM

Source: patent publication US6218431A, “Substituted biphenyls” (Bayer Corporation, priority 1997, dated 2001)
